Experimental data published in the supplement of paper PMC10307832.

How the values were obtained:
Test in all cases: relative viability (nuclei count vs DMSO), 5 days (fraction); higher = more cells survive
Midostaurin + Crizotinib = compound: CO[C@@H]1[C@H](N(C)C(=O)c2ccccc2)C[C@H]2O[C@]1(C)n1c3ccccc3c3c4c(c5c6ccccc6n2c5c31)C(=O)NC4 [Midostaurin] + C[C@@H](Oc1cc(-c2cnn(C3CCNCC3)c2)cnc1N)c1c(Cl)ccc(F)c1Cl [Crizotinib] (partner 1 µM)
In short: (§1)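 For relative viability, nuclei counts in treated wells were divided by those in vehicle wells. Lung cancer cell lines had been pin-tool dosed in 1536-well plates the day after seeding and cultured for 5 days, then fixed and stained in one step (final 0.05% Triton X-100, 1% formaldehyde, 1 ug/ml Hoechst) and imaged at 4×. Doses were one drug alone or a fixed anchor-drug dose plus five library-drug doses (not always all listed) in √10 steps, and values are duplicate-plate medians.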

Midostaurin + Linsitinib = compound: CO[C@@H]1[C@H](N(C)C(=O)c2ccccc2)C[C@H]2O[C@]1(C)n1c3ccccc3c3c4c(c5c6ccccc6n2c5c31)C(=O)NC4 [Midostaurin] + C[C@]1(O)C[C@@H](c2nc(-c3ccc4ccc(-c5ccccc5)nc4c3)c3c(N)nccn32)C1 [Linsitinib] (partner 1 µM)
In short: as §1

Midostaurin + Pictilisib = compound: CO[C@@H]1[C@H](N(C)C(=O)c2ccccc2)C[C@H]2O[C@]1(C)n1c3ccccc3c3c4c(c5c6ccccc6n2c5c31)C(=O)NC4 [Midostaurin] + CS(=O)(=O)N1CCN(Cc2cc3nc(-c4cccc5[nH]ncc45)nc(N4CCOCC4)c3s2)CC1 [Pictilisib] (partner 1 µM)
In short: as §1

Midostaurin + Tozasertib = compound: CO[C@@H]1[C@H](N(C)C(=O)c2ccccc2)C[C@H]2O[C@]1(C)n1c3ccccc3c3c4c(c5c6ccccc6n2c5c31)C(=O)NC4 [Midostaurin] + Cc1cc(Nc2cc(N3CCN(C)CC3)nc(Sc3ccc(NC(=O)C4CC4)cc3)n2)n[nH]1 [Tozasertib] (partner 0.1 µM)
In short: as §1

Midostaurin + OSI-027 = compound: CO[C@@H]1[C@H](N(C)C(=O)c2ccccc2)C[C@H]2O[C@]1(C)n1c3ccccc3c3c4c(c5c6ccccc6n2c5c31)C(=O)NC4 [Midostaurin] + COc1cccc2cc(-c3nc([C@H]4CC[C@H](C(=O)O)CC4)n4ncnc(N)c34)[nH]c12 [OSI-027] (partner 0.5 µM)
In short: as §1

Row | Cell Line | relative viability (Midostaurin + Crizotinib; first compound 0.01 µM) | relative viability (Midostaurin + Crizotinib; first compound 0.03162 µM) | relative viability (Midostaurin + Crizotinib; first compound 0.1 µM) | relative viability (Midostaurin + Crizotinib; first compound 0.3162 µM) | relative viability (Midostaurin + Linsitinib; first compound 0.01 µM) | relative viability (Midostaurin + Linsitinib; first compound 0.03162 µM) | relative viability (Midostaurin + Linsitinib; first compound 0.1 µM) | relative viability (Midostaurin + Linsitinib; first compound 0.3162 µM) | relative viability (Midostaurin + Pictilisib; first compound 0.01 µM) | relative viability (Midostaurin + Pictilisib; first compound 0.03162 µM) | relative viability (Midostaurin + Pictilisib; first compound 0.1 µM) | relative viability (Midostaurin + Pictilisib; first compound 0.3162 µM) | relative viability (Midostaurin + Tozasertib; first compound 0.01 µM) | relative viability (Midostaurin + Tozasertib; first compound 0.03162 µM) | relative viability (Midostaurin + Tozasertib; first compound 0.1 µM) | relative viability (Midostaurin + Tozasertib; first compound 0.3162 µM) | relative viability (Midostaurin + OSI-027; first compound 0.01 µM) | relative viability (Midostaurin + OSI-027; first compound 0.03162 µM) | relative viability (Midostaurin + OSI-027; first compound 0.1 µM) | relative viability (Midostaurin + OSI-027; first compound 0.3162 µM)
1 | NCI-H1734 | 0.653 | 0.691 | 0.705 | 0.647 | 0.832 | 0.803 | 0.728 | 0.928 | 0.465 | 0.424 | 0.496 | 0.303 | 0.239 | 0.276 | 0.294 | 0.267 | 0.57 | 0.589 | 0.632 | 0.552
2 | NCI-H1755 | 0.808 | 0.805 | 0.761 | 0.484 | 0.97 | 0.923 | 0.865 | 0.692 | 0.397 | 0.345 | 0.407 | 0.332 | 0.521 | 0.614 | 0.535 | 0.547 | 0.74 | 0.677 | 0.678 | 0.483
3 | NCI-H1915 | 0.889 | 0.889 | 0.979 | 0.94 | 1.05 | 1.06 | 1.09 | 1.11 | 0.913 | 0.852 | 1.01 | 0.98 | 0.46 | 0.435 | 0.404 | 0.412 | 0.623 | 0.555 | 0.568 | 0.597
4 | NCI-H1944 | 1.07 | 1.08 | 1 | 1.1 | 1.17 | 1.25 | 1.31 | 1.28 | 0.388 | 0.294 | 0.372 | 0.327 | 0.268 | 0.269 | 0.261 | 0.232 | 0.385 | 0.399 | 0.416 | 0.411
5 | NCI-H1975 | 1 | 0.963 | 0.863 | 0.623 | 0.92 | 0.959 | 0.727 | 0.575 | 0.277 | 0.273 | 0.263 | 0.248 | 0.732 | 0.763 | 0.716 | 0.37 | 0.784 | 0.838 | 0.752 | 0.607
6 | NCI-H1993 | 0.879 | 0.762 | 1.06 | 0.893 | 0.782 | 0.712 | 0.655 | 0.669 | 0.775 | 0.817 | 0.898 | 0.722 | 0.595 | 0.606 | 0.545 | 0.599 | 0.519 | 0.546 | 0.54 | 0.576
7 | NCI-H2009 | 1.07 | 0.98 | 0.996 | 1.06 | 1.2 | 1.05 | 1.06 | 1.19 | 0.891 | 0.833 | 0.752 | 0.555 | 0.711 | 0.707 | 0.563 | 0.426 | 0.542 | 0.522 | 0.453 | 0.426
8 | NCI-H2023 | 0.642 | 0.613 | 0.584 | 0.499 | 0.653 | 0.617 | 0.515 | 0.403 | 0.235 | 0.249 | 0.208 | 0.186 | 0.408 | 0.316 | 0.29 | 0.171 | 0.426 | 0.385 | 0.41 | 0.302
